Holding throughout (type): functional, cell-based
In data set [1] the target is T1, Solute carrier family 15 member 2 (Rattus norvegicus) (UniProt Q63424).
T1 sequence (whole entry): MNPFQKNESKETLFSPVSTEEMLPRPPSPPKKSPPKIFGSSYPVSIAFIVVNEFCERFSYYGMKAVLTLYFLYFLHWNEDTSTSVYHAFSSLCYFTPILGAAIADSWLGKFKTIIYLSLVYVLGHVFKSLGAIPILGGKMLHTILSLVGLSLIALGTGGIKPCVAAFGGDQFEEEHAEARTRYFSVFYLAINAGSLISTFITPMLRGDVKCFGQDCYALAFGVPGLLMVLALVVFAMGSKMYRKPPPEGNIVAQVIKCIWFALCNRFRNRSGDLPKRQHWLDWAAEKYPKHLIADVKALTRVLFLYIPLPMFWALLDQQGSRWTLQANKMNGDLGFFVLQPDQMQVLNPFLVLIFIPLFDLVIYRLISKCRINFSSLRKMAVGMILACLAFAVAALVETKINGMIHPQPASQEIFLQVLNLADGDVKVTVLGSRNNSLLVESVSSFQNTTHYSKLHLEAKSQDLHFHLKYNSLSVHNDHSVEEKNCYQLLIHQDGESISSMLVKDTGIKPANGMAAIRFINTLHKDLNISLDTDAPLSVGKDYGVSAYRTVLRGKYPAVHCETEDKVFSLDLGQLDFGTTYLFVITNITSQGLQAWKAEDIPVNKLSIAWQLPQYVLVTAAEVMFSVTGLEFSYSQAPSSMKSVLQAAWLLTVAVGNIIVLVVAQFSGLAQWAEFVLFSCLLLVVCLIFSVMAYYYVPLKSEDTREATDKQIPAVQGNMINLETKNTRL
The data set is described as follows: TP_TRANSPORTER: inhibition of Gly-Sar uptake (Gly-Sar: 20 uM, Ala-OMe: 10000 uM) in PEPT2-expressing LLC-PK1 cells.

Data set [2] deals with T2, Solute carrier family 15 member 1 (Rattus norvegicus) (UniProt P51574).
T2 sequence (whole entry): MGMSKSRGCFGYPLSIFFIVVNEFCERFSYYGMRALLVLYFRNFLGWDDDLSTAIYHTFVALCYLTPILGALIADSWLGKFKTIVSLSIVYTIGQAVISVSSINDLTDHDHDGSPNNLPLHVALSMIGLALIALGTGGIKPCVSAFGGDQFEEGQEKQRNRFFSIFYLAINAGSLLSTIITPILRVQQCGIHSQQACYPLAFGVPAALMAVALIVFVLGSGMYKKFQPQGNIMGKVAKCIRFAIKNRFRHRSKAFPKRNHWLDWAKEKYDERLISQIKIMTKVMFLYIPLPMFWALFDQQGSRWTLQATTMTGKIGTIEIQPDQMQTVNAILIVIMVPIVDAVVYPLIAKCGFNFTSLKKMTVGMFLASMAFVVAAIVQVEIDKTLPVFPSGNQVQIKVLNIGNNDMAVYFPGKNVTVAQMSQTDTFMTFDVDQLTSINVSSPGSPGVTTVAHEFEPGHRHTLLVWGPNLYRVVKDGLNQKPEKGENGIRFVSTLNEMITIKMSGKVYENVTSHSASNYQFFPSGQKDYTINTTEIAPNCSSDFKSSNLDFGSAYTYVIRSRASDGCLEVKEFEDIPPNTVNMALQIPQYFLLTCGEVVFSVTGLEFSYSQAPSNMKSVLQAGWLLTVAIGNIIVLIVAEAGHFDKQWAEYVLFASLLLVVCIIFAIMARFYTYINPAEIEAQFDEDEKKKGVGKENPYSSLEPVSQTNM
Description: TP_TRANSPORTER: inhibition of Gly-Sar uptake (Gly-Sar: 20 uM, Ala-OMe: 10000 uM) in PEPT1-expressing LLC-PK1 cells.

Data set [3] has as its target T2, Solute carrier family 15 member 1 (Rattus norvegicus). Description: TP_TRANSPORTER: inhibition of Gly-Sar uptake (Gly-Sar: 20 uM, Ser-OMe: 10000 uM) in PEPT1-expressing LLC-PK1 cells.
Data set [4] has the same target. Description: TP_TRANSPORTER: inhibition of Gly-Sar uptake (Gly-Sar: 20 uM, Val-tBu: 10000 uM) in PEPT1-expressing LLC-PK1 cells.
In data set [5] the target is T1, Solute carrier family 15 member 2 (Rattus norvegicus). Description: TP_TRANSPORTER: inhibition of Gly-Sar uptake (Gly-Sar: 20 uM, Val-tBu: 10000 uM) in PEPT2-expressing LLC-PK1 cells.
For data set [6] the target is unchanged. The data set is described as follows: TP_TRANSPORTER: inhibition of Gly-Sar uptake (Gly-Sar: 20 uM, Val-OBzl: 10000 uM) in PEPT2-expressing LLC-PK1 cells.
Data set [7] addresses T2, Solute carrier family 15 member 1 (Rattus norvegicus). The data set is described as follows: TP_TRANSPORTER: inhibition of Gly-Sar uptake (Gly-Sar: 20 uM, Val-OBzl: 10000 uM) in PEPT1-expressing LLC-PK1 cells.
The target of data set [8] is T3, Solute carrier family 15 member 2 (Rattus norvegicus, UniProt Q63424).
T3 sequence (Q63424 whole entry): T1 sequence (whole entry)
The data set is described as follows: TP_TRANSPORTER: inhibition of Gly-Sar uptake in PEPT2-expressing LLC-PK1 cells.

In data set [9] the target is T4, Solute carrier family 15 member 1 (Rattus norvegicus, UniProt P51574).
T4 sequence (P51574 whole entry): T2 sequence (whole entry)
Description: TP_TRANSPORTER: inhibition of Gly-Sar uptake in PEPT1-expressing LLC-PK1 cells.

In data set [10] the target is T1, Solute carrier family 15 member 2 (Rattus norvegicus). Description: TP_TRANSPORTER: inhibition of Gly-Sar uptake (Gly-Sar: 20 uM, Val-OEt: 10000 uM) in PEPT2-expressing LLC-PK1 cells.
For data set [11], the target named is T2, Solute carrier family 15 member 1 (Rattus norvegicus). Description: TP_TRANSPORTER: inhibition of Gly-Sar uptake (Gly-Sar: 20 uM, Val-OEt: 10000 uM) in PEPT1-expressing LLC-PK1 cells.
Data set [12] addresses T1, Solute carrier family 15 member 2 (Rattus norvegicus). Description: TP_TRANSPORTER: inhibition of Gly-Sar uptake (Gly-Sar: 20 uM, Ile-OMe: 10000 uM) in PEPT2-expressing LLC-PK1 cells.
Data set [13] has as its target T2, Solute carrier family 15 member 1 (Rattus norvegicus). The data set is described as follows: TP_TRANSPORTER: inhibition of Gly-Sar uptake (Gly-Sar: 20 uM, Ile-OMe: 10000 uM) in PEPT1-expressing LLC-PK1 cells.
The target in data set [14] is T1, Solute carrier family 15 member 2 (Rattus norvegicus). The data set is described as follows: TP_TRANSPORTER: inhibition of Gly-Sar uptake (Gly-Sar: 20 uM, Tyr-OMe: 10000 uM) in PEPT2-expressing LLC-PK1 cells.
Data set [15] has the same target. The data set is described as follows: TP_TRANSPORTER: inhibition of Gly-Sar uptake (Gly-Sar: 20 uM, Leu-OMe: 10000 uM) in PEPT2-expressing LLC-PK1 cells.
For data set [16], the target named is T2, Solute carrier family 15 member 1 (Rattus norvegicus). The data set is described as follows: TP_TRANSPORTER: inhibition of Gly-Sar uptake (Gly-Sar: 20 uM, Leu-OMe: 10000 uM) in PEPT1-expressing LLC-PK1 cells.
The target in data set [17] is T1, Solute carrier family 15 member 2 (Rattus norvegicus). Description: TP_TRANSPORTER: inhibition of Gly-Sar uptake (Gly-Sar: 20 uM, Gly-OMe: 10000 uM) in PEPT2-expressing LLC-PK1 cells.
Data set [18] deals with T2, Solute carrier family 15 member 1 (Rattus norvegicus). Description: TP_TRANSPORTER: inhibition of Gly-Sar uptake (Gly-Sar: 20 uM, Gly-OMe: 10000 uM) in PEPT1-expressing LLC-PK1 cells.
Substrate in data set [19]: CN(CC(=O)O)C(=O)CN
Description: TP_TRANSPORTER: uptake in PEPT2-expressing LLC-PK1 cells.

Substrate in data set [20]: CN(CC(=O)O)C(=O)CN
The data set is described as follows: TP_TRANSPORTER: uptake in PEPT1-expressing LLC-PK1 cells.

Several values for one entry are separate records, joined by “and”; a condition that tells them apart may be missing. Equal values may be shown once.

`COC(=O)[C@H](C)N`: the Activity entry in data set [1] and in [2] was “inhibitor [+]” each time.

As for `COC(=O)[C@@H](N)CO`, the Activity result in data set [3] was “inhibitor [+]”.

For the molecule `CC(C)[C@H](N)C(=O)OC(C)(C)C`, the Activity entry in data set [4] and in data set [5] was “inhibitor [+]” throughout.

Regarding `CC(C)[C@H](N)C(=O)OCc1ccccc1`, the Activity result in [6] and in [7] was “inhibitor [+]” throughout.

Turning to `CC(C)[C@H](N)C(=O)OCCOCn1cnc2c(=O)[nH]c(N)nc21` [VALACYCLOVIR], the Ki in [8] was 220 µM; in data set [8] (llc-pk1) it was 220 µM; in data set [9], 2500 µM and 2700 µM.

Turning to `CCOC(=O)[C@@H](N)C(C)C`, the Activity entry in [10] and in [11] was “inhibitor [+]” throughout.

For the molecule `CC[C@H](C)[C@H](N)C(=O)OC`, the Activity entry in [12] and in data set [13] was “inhibitor [+]” throughout.

On to `COC(=O)[C@@H](N)Cc1ccc(O)cc1`, for which the Activity entry in [14] is “inhibitor [+]”.

For `COC(=O)[C@@H](N)C(C)C`, the values for the Ki in data set [8] and in data set [9] were 830 µM and 3600 µM, respectively.

Take `COC(=O)[C@@H](N)CC(C)C`: the Activity result in data set [15] and in [16] was “inhibitor [+]” each time.

Consider `COC(=O)CN`, for which the Activity result in data set [17] and in data set [18] was “inhibitor [+]” throughout.

B1: Solute carrier family 15 member 2 (Rattus norvegicus), Q63424 (protein)
chain: T1 sequence (whole entry)
Turning to B1, the Km in [19] was 90 µM.

B2: Solute carrier family 15 member 1 (Rattus norvegicus), P51574 (protein)
chain: T2 sequence (whole entry)
For the molecule B2, in data set [20], the Michaelis-Menten constant (Km) was 1900 µM.

For the origin of these results see ChEMBL document CHEMBL2074135, “Recognition of L-amino acid ester compounds by rat peptide transporters PEPT1 and PEPT2” (J Pharmacol Exp Ther, 1999).
